Results taken from a melting point compilation (Tetko et al.; mined from patent text by program, amines drawn as free bases though some values may be those of a salt).

Row | melting point [°C] | Compound
1 | 170 | O=c1nc(-c2ccccn2)sc2ccc(OCCCc3ccccc3)cc12
2 | 148 | Cn1ncnc1COc1nn2c(-c3ccoc3)nncc2c1-c1ccccc1F
3 | 87 to 88 | Cc1nc(S(=O)(=O)CC(=O)OCc2cccs2)nc(C)c1Br
4 | 242 to 244 | Cc1ccc(-c2c(-c3ccc(S(C)(=O)=O)cc3)cnn(-c3ccc(F)cc3)c2=O)cc1
5 | 150 to 152 | COc1ccc(Cl)cc1C(=O)NCCc1ccc(Br)c(S(=O)(=O)N=CN(C)C)c1
6 | 75 to 77 | CCOC(=O)c1c2ccc(Cl)cc2c(-c2ccccc2)n1CCN(CC)CC
7 | 199 to 204 | CN(C)C(=O)Nc1ccc(N2CCOCC2)cc1
8 | 169 to 171 | Cc1cc2c(cc1S(=O)(=O)c1ccc(Cl)cc1)OC(C(=O)O)O2 (centres undefined)
9 | 196 to 197 | CNC(=O)c1cc(=NS(=O)(=O)c2ccccc2)c2c(Cl)cc(Cl)cc2[nH]1
10 | 55 to 57 | C#CC(C)(O)c1ccc(Oc2ccc(Cl)cc2)cc1 (centres undefined)
11 | 82 to 84 | C[C@@H](O)[C@H]1C(=O)N([Si](C)(C)C(C)(C)C)[C@@H]1CC(=O)[Si](C)(C)C
12 | 160 to 161 | Cc1oc(-c2ccccc2)nc1COc1ccc(COc2ccc(C(=O)c3ccccc3)c(O)c2)cc1
13 | 225 to 226 | Cc1ccc(S(=O)(=O)NC(CN)C(=O)O)cc1 (centres undefined)
14 | 120 to 122 | CCCCCc1c(-c2ccc3cc(OCc4nnn[nH]4)ccc3c2)n(C)c2ccccc12
15 | 193 to 195 | CC(C)(CO)NC(=O)c1n[nH]cc1NC(=O)c1ccccn1
16 | 136 to 139 | C#Cc1cc(Oc2cnc(NC(CO)CO)nc2N)c(C(C)C)cc1OC
17 | 95 to 96 | CC(=O)C(=Cc1cccc([N+](=O)[O-])c1)C(=O)OC(C)CCl (centres undefined)
18 | 54 to 57 | COc1ccc2cc(CN(C)C(=O)c3oc4ccccc4c3CCc3ccccc3)ccc2c1Br
19 | 242 to 243 | Fc1ccc(-c2nc(-c3ccc(CN4CCOCC4)cc3)[nH]c2-c2ccncc2)cc1
20 | 147 to 148 | CCN1C(=O)c2cnc(-c3ccccc3)nc2N(C(=O)CCl)c2ccccc21
21 | 81 to 83 | Cn1nccc1[C@H](O)c1ccccc1
22 | 224 to 226 | CN(C)S(=O)(=O)c1cc(C(=O)O)cc([N+](=O)[O-])c1Oc1ccccc1
23 | 34 to 36 | CCOC(=O)C=Cc1cc(Cl)ccc1Cl
24 | 176 to 178 | Cc1c(C)c2c(c(C)c1O)CCC(C)(C(=O)N1CCC(Oc3ccc([N+](=O)[O-])cc3)C1)O2 (centres undefined)

Row | melting point [°C] | Compound
25 | 258 to 261 | Cc1csc2[nH]c(=O)nc(-c3ccccc3F)c12
26 | 198 to 200 | Cc1cc(-c2cncc(OC3SCC(O)C(O)C3O)c2)ccc1C#N (centres undefined)
27 | 214 to 215 | COC(=O)c1cccc(Nc2nc(N)c(C(=O)c3ccccc3OC)s2)c1
28 | 160 to 162 | Cc1ccc(NC(=O)Nc2cccc(C(F)(F)F)c2)cc1/C=C/n1cnc2c(NC3CC3)ncnc21
29 | 70.5 | CCCc1ccc(C=NN=Cc2ccc(F)cc2)cc1
30 | 242 to 243 | NS(=O)(=O)c1ccc(NC(=O)Nc2ccc(F)cc2)cc1
31 | 178 | CC(=O)NC[C@H](O)CC(=O)NN
32 | 120 to 121 | C/C(=C\CC1OC(=O)NC1=O)c1cccc(OCc2nc(-c3ccc(OCC(F)(F)F)cc3)oc2C)c1 (centres undefined)
33 | 195 to 197 | CC(=O)SCC(Cc1ccccc1)C(=O)Nc1ccc(C(N)=O)cc1 (centres undefined)
34 | 85 to 86 | Cc1cc(-c2nc(COc3ccc(CCCCn4ccnc4)cc3)co2)sc1Br
35 | 134 to 136 | CNC(=O)C(Cc1c[nH]c2ccccc12)NC(=O)C(CC(C)C)C(CC(=O)OC)SC(C)=O (centres undefined)
36 | 62 | CCC1(C)NC(=O)C(CCSC)O1 (centres undefined)
37 | 253 to 255 | O=C1CCC(N2Cc3c(CNC(=O)Nc4ccc(Cl)c(Cl)c4)cccc3C2=O)C(=O)N1 (centres undefined)
38 | 107 to 109 | COC(=O)CCCC#Cc1cc(Cl)ccc1NS(=O)(=O)c1c(C)noc1C
39 | 211 to 213 | Fc1ccc(/C=C/C2=CCN(Cc3c[nH]c4ncccc34)CC2)cc1
40 | 208 to 210 | O=C1c2c(O)ccc(O)c2C(=O)c2c(NCCN3CCCCC3CO)ccc(NCCN3CCCCC3CO)c21 (centres undefined)
41 | 174 | COc1cc2cc(-c3ccc4c(c3)OCO4)nc(C)c2cc1OC
42 | 145 to 147 | O=c1c2cc(F)c(F)cc2n(CCF)c(=O)n1OCc1ccccc1
43 | 211 to 212 | Cc1ccccc1NC(=O)Nc1ccc(CC(=O)ON2C(=O)CCC2=O)cc1
44 | 203 to 206 | COc1ccc2c(Cc3c(Cl)cncc3Cl)nnc(CN3CCOCC3)c2c1
45 | 101 to 102 | CC(C)c1nn(-c2ccc(C(F)(F)F)cn2)cc1CCCOc1cccc(OC(C)(C)C(=O)O)c1
46 | 195 to 198 | CC(C)(C)OC(=O)NCCS(=O)(=O)Nc1ccc2c(c1)C(=O)Nc1cccnc1N2
47 | 150 to 152 | CCc1nc(Cc2ccc(NC(=O)/C=C/c3cnn(C)c3-c3ccc(F)cc3)cc2)no1
48 | 157 | CCOc1ccc2c(c1)n(C1CCCCC1)c(=O)n2Cc1ccc(NC(=O)N(C)CCO)cc1OC

Row | melting point [°C] | Compound
49 | 91 to 97 | CN(C)C(=O)n1cc(C(=O)C2CSC(c3cccnc3)N2)c2ccc(-c3ccccc3)cc21 (centres undefined)
50 | 185 to 187 | CCCN1CCN(Cc2ccc3c(c2)-c2[nH]nc(-c4ccsc4)c2C3)CC1
51 | 125 | O=S(=O)(NCc1cccnc1)c1ccc(Br)s1
52 | 131 to 133 | O=C(O)COc1cccc2c1Cc1sc(S(=O)(=O)CCC(c3ccccc3)c3ccccc3)nc1-2
53 | 123 to 125 | COC(=O)c1ccc(CN(C2CCCCC2O)S(=O)(=O)c2ccc(Cl)cc2)c(F)c1F (centres undefined)
54 | 277 to 278 | CCN(CC)S(=O)(=O)c1ccc2[nH]c(-c3c(C)c(Cl)cc(C(C)(C)C)c3O)nc2c1
55 | 113 to 115 | CC(C)(CNC=O)c1ccc(N)c([N+](=O)[O-])c1
56 | 216 to 219 | Cc1nc2c(-c3cccc(N4CCN(C)CC4)c3)cnn2c(N)c1-c1ccc(F)c(F)c1
57 | 176 to 177 | CC(=O)OCOC(=O)COC(=C1C(=O)N(C(N)=O)c2cc(Cl)c(F)cc21)c1cccs1
58 | 49 to 52 | CCOC(=O)CC(=O)c1c(F)cc(Br)cc1F
59 | 160 to 162 | CC(=O)NC[C@H]1CN(c2ccc(N3CCC(n4cc(CO)nn4)CC3)c(F)c2)C(=O)O1
60 | 176 | CN(c1ccc(O)cc1)c1nc2cc(Cl)c(Cl)cc2nc1Cl
61 | 108 | COc1ccc2cccc(CCNC(C)=O)c2c1
62 | 242 to 244 | O=C(O)c1cn(-c2ccc(F)cc2F)c2nc(Cl)c(F)cc2c1=O
63 | 175 to 177 | CC1COc2cc(-c3ccco3)ccc2C1=NO (centres undefined)
64 | 157 to 158 | CC(=O)c1ccc(S(=O)(=O)NC(C)(C)C(=O)O)cc1
65 | 305 to 307 | CCn1c(=O)c(-c2cc(OC)cc(OC)c2)cc2cnc(Nc3ccncc3)nc21
66 | 238 to 239 | CNC(=O)Cc1c(-c2cc(C)sc2C)nc2sc3ccccc3n12
67 | 181 to 183 | O=C(O)COc1ccc(CC2SC(=O)NC2=O)cc1 (centres undefined)
68 | 120 to 122 | O=C(O)CCCCCCCCCCCCCCCCC(=O)ON1C(=O)CCC1=O
69 | 155 to 156 | Cc1nc(C(C)(C)C)c[nH]1
70 | 248 to 249 | O=C(O)c1cc(=O)cc(-c2cccc3ccccc23)o1
71 | 147 to 152 | O=C(Nc1cccc(-n2nc(C(F)(F)F)cc2C(F)(F)F)c1)c1cc([N+](=O)[O-])ccc1Cl
72 | 141 to 142 | COc1ccc(N=C(NC(=S)NCCO)c2ccccc2)cc1

Row | melting point [°C] | Compound
73 | 142 | O=C(NCCCCCCCCCCCNC(=O)c1ccc(OC(F)(F)F)cc1)c1ccc(OC(F)(F)F)cc1
74 | 106 to 107 | CCCCC1(CCCC)CCc2c(OCc3ccccn3)cccc2C1O (centres undefined)
75 | 234 to 235 | Cc1cccc(C(=O)NC(Nc2c(Nc3cccnc3)c(=O)c2=O)C(C)(C)Cc2ccccc2)c1 (centres undefined)
76 | 106 to 108 | C=C(CC(C)C(=O)O)C(=O)O (centres undefined)
77 | 107 to 108 | COC(=O)C1Oc2ccccc2Cc2cccc(Cl)c2O1 (centres undefined)
78 | 58 to 60 | CCCCCCC1OC1(C(=O)OCC)C(=O)OCC (centres undefined)
79 | 92 | Cc1csc2c1-n1cccc1/C2=N/OCCBr
80 | 270 | Cc1cnc2[nH]c3ccccc3c2c1
81 | 220 to 225 | NC(=O)c1coc2ccccc2c1=O
82 | 104 to 108 | COc1ccnc(CSc2nc3cc(OC(F)F)ccc3[nH]2)c1OC
83 | 125 to 130 | O=C(O)c1cccc(CC(Cn2ccnc2)c2ccc(F)cc2)c1 (centres undefined)
84 | 287 to 289 | COc1cccc2c(=O)c(C(C)=O)c[nH]c12
85 | 65.5 to 67.5 | O=C1c2cc(CCCCOC(=O)C(F)(F)F)ccc2OCc2sccc21
86 | 155 to 157 | N#CC(C(=O)Nc1ccc(S(=O)C(F)(F)F)cc1)=C(O)C1CC1 (centres undefined)
87 | 170 to 172 | Cc1oc(-c2ccccc2)nc1CCOc1ccc(C[C@@H](C(=O)O)N2CCN(S(=O)(=O)c3ccccc3F)CC2)cc1
88 | 216 to 218 | Cc1ccc(-c2nc3sc4ccccc4n3c2CC(=O)N(C)C)s1
89 | 204 | CCc1c(Cl)c2ccccn2c1C(=O)c1ccc(O)c(Br)c1
90 | 172 | Cn1ccnc1Sc1cccc(-c2nc(=O)c3ccccc3s2)n1
91 | 122 to 123 | CCN(c1ccc(Cl)cc1[N+](=O)[O-])S(=O)(=O)c1ccc(Cl)cc1
92 | 78 to 80 | O=C1CC(c2ccccc2)(c2cccs2)Oc2ccccc21 (centres undefined)
93 | 210 to 212 | Nc1nc(O)c2c(n1)NCC(CCc1nc(C(=O)N[C@@H](CCC(=O)O)C(=O)O)cs1)C2 (some centres undefined)
94 | 176 to 178 | Oc1c(Br)cc2oc3ccccc3c2c1Br

Row | Compound | melting point [°C]
95 | Fc1ccccc1C1=NCc2cncn2-c2ccc(Cl)cc21 | 148 to 151
96 | O=C(Cc1ccc(Cl)cc1)NC1N=C(c2ccccc2)c2ccccc2NC1=O (centres undefined) | 238 to 240
97 | Cc1ccc(Cl)cc1NC(=O)c1cc([N+](=O)[O-])ccc1NC(=O)CF | 210 to 212
98 | CCC1(c2cn(-c3c(Cl)cc(C(F)(F)F)cc3Cl)nc2C#N)CC1(Br)Br (centres undefined) | 107 to 108
99 | CNC(=O)ON=C1N=C(C(C)C)C(C)(C)S1 | 89 to 91
